According to patent publication US8067406B2, “Preventive/remedy for retinal nerve diseases containing alkyl ether derivatives or salts thereof” (Toyama Chemical Co., Ltd., priority 2003, dated 2011):

Key:
[1] = test system: Rat Retinal Ischemia Reperfusion Model; assay: Protecting effect of retinal nerve in rat retinal ischemia reperfusion model (electroretinogram measurement); assay type: in vivo; conditions: SD rats, 30 min retinal ischemia; 10 mg/kg orally twice a day for 14 days from 2 days after reperfusion; ERG about 1 hour after final administration; distilled water control group 35%
Experimental: A rat retinal ischemia reperfusion model was prepared by a partially modified method of Steven Roth et al. (Experimental Eye Research, Vol. 65, pp. 771-779, 1997).
As experimental animals, SD rats (SPF, 9-week-old, male, approximately 300 g of body weight) were used. Such rats were anesthetized with halothane (introduction: 4%; retention: 2%; gas composition: 70% air+30% oxygen; gas flow rate: 2 L/min). The rat was placed on a fixing plate with the left body side upward. The skin located between the external acoustic foramen and the external canthus on the left side was incised, and the skin-incised portion was held with a hook. The temporal muscle was burned out with a bipolar coagulator (output: 4.5 W), and it was detached from the cranial bone and the mandibular arch. […]
ERG was measured in accordance with the method of Kawakami et al. (Gifu-dai Iki, Vol. 48, pp. 166-175, 2000). […] The obtained waveform was swept on a memory oscilloscope and then recorded by a thermal array recorder. […] ERG of the ischemic eye was evaluated as a ratio to the value of normal control eye. ERG was measured after adaptation to darkness at 2 days after retinal ischemia reperfusion, and at approximately 1 hour after the final administration.

SMILES	ratio of the ERG amplitude value of the ischemic eye to the normal control eye [1] [%]	melting point [°C]
O=C(O)/C=C\C(=O)O.OC1CN(CCCOCCc2ccc3sccc3c2)C1 [1-(3-(2-(1-benzothiophene-5-yl)ethoxy)propyl)-3-azetidinol maleate]	65	–
Cl.OC1CN(CCOCCc2ccc3sccc3c2)C1	–	101 to 102
